Values quoted from earlier work as cited in PubChem BioAssay AID1259409 (Chemical Carcinogenesis Research Information System (CCRIS), 2018).

Test system: rodent chemically induced tumor inhibition, incidence and multiplicity
Assay: CCRIS tumor inhibitor studies
Conditions: Route [Inhibitor]: ORAL; for tumour outcome (control, treated, inhibition, significance): Promoter: NONE USED

In the case of `O=[Se](O)O`, the “tumour outcome (control, treated, inhibition, significance)” value (Carcinogen: AZOXYMETHANE, 25843-45-2, Dose [Inhibitor]: 2.5 PPM IN DIET BEGINNING 1 WK POST CARCINOGEN DOSE FOR DURATION OF STUDY (STUDY DURATION: 39 WK), Species: RAT, Strain/Sex: F344/MALE, Target Tissue: Type of Lesion: DUODENUM: ADENOCARCINOMA, Dose [Carcinogen]: 15 MG/KG BW 1/WK FOR 2 WK) is given as 7/27 (26%), 8/27 (30%), -15%, not significant, the “tumour outcome (control, treated, inhibition, significance)” value (Carcinogen: AZOXYMETHANE, 25843-45-2, Dose [Inhibitor]: 2.5 PPM IN DIET BEGINNING 1 WK POST CARCINOGEN DOSE FOR DURATION OF STUDY (STUDY DURATION: 39 WK), Species: RAT, Strain/Sex: F344/MALE, Target Tissue: Type of Lesion: DUODENUM: ADENOMA, Dose [Carcinogen]: 15 MG/KG BW 1/WK FOR 2 WK) is given as 3/27 (11%), 5/27 (19%), -73%, not significant and the “tumour outcome (control, treated, inhibition, significance)” value (Carcinogen: AZOXYMETHANE, 25843-45-2, Dose [Inhibitor]: 2.5 PPM IN DIET BEGINNING 3 WK PRIOR TO CARCINOGEN DOSE AND CONTINUING FOR 1 WK POST CARCINOGEN DOSE (STUDY DURATION: 39, Species: RAT, Strain/Sex: F344/MALE, Target Tissue: Type of Lesion: COLON: ADENOCARCINOMA, Dose [Carcinogen]: 15 MG/KG BW 1/WK FOR 2 WK) is given as 10/27 (37%), 9/27 (33%), 11%, not significant. The “tumour outcome (control, treated, inhibition, significance)” value (Carcinogen: AZOXYMETHANE, 25843-45-2, Dose [Inhibitor]: 2.5 PPM IN DIET BEGINNING 3 WK PRIOR TO CARCINOGEN DOSE AND CONTINUING FOR 1 WK POST CARCINOGEN DOSE (STUDY DURATION: 39, Species: RAT, Strain/Sex: F344/MALE, Target Tissue: Type of Lesion: COLON: ADENOMA, Dose [Carcinogen]: 15 MG/KG BW 1/WK FOR 2 WK) was 16/27 (59%), 13/27 (48%), 19%, not significant, the “tumour outcome (control, treated, inhibition, significance)” value (Carcinogen: AZOXYMETHANE, 25843-45-2, Dose [Inhibitor]: 2.5 PPM IN DIET BEGINNING 3 WK PRIOR TO CARCINOGEN DOSE AND CONTINUING FOR 1 WK POST CARCINOGEN DOSE (STUDY DURATION: 39, Species: RAT, Strain/Sex: F344/MALE, Target Tissue: Type of Lesion: DUODENUM: ADENOCARCINOMA, Dose [Carcinogen]: 15 MG/KG BW 1/WK FOR 2 WK) was 7/27 (26%), 13/27 (48%), -85%, not significant and the “tumour outcome (control, treated, inhibition, significance)” value (Carcinogen: AZOXYMETHANE, 25843-45-2, Dose [Inhibitor]: 2.5 PPM IN DIET BEGINNING 3 WK PRIOR TO CARCINOGEN DOSE AND CONTINUING FOR 1 WK POST CARCINOGEN DOSE (STUDY DURATION: 39, Species: RAT, Strain/Sex: F344/MALE, Target Tissue: Type of Lesion: DUODENUM: ADENOMA, Dose [Carcinogen]: 15 MG/KG BW 1/WK FOR 2 WK) was 3/27 (11%), 6/27 (22%), -100%, not significant. For the same compound, the “tumour outcome (control, treated, inhibition, significance)” value (Carcinogen: AZOXYMETHANE, 25843-45-2, Dose [Inhibitor]: O.5 PPM IN DIET BEGINNING 3 WK PRIOR TO CARCINOGEN DOSE AND CONTINUING FOR 1 WK POST CARCINOGEN DOSE (STUDY DURATION: 39, Species: RAT, Strain/Sex: F344/MALE, Target Tissue: Type of Lesion: COLON: ADENOCARCINOMA, Dose [Carcinogen]: 15 MG/KG BW 1/WK FOR 2 WK) was 10/27 (37%), 8/27 (30%), 19%, not significant, the “tumour outcome (control, treated, inhibition, significance)” value (Carcinogen: BENZO[A]PYRENE, 50-32-8, Dose [Inhibitor]: 4 PPM IN DRINKING WATER DAILY FOR 12 MO STARTING 12 MO BEFORE CARCINOGEN TREATMENT (STUDY DURATION: 67 WK), Species: MOUSE, Strain/Sex: BALB/MALE, Target Tissue: Type of Lesion: INJECTION SITE: SARCOMA, Dose [Carcinogen]: 4 UG/G BW ONCE) was 31/50 (62%), 14/50 (28%), 55% and the outcome (Carcinogen: DIETHYLNITROSAMINE [55-18-5], Dose [Inhibitor]: 5 PPM IN DRINKING WATER, 3 WK AFTER PARTIAL HEPATECTOMY TO END AT 12 MO (STUDY DURATION: 12 MO), DRINKING WATER, Species: RAT, Strain/Sex: F344, Target Tissue: Type of Lesion: LIVER: TUMOR DENSITY, Dose [Carcinogen]: 200 MG/KG BW ONCE, Promoter: 2-ACETYLAMINOFLUORENE [53-96-3]) was 26, 14, 46.2%, p=0.01. For the same compound, the “tumour outcome (control, treated, inhibition, significance)” value (Carcinogen: DIETHYLNITROSAMINE, 55-18-5, Dose [Inhibitor]: 0, 1 MG/L IN DRINKING WATER FOR DURATION OF STUDY BEGINNING 7 D PRIOR TO FIRST CARCINOGEN DOSE (STUDY DURATION: 6 MO), Species: RAT, Strain/Sex: BD6/FEMALE, Target Tissue: Type of Lesion: ESOPHAGUS: TUMOR, Dose [Carcinogen]: 80 MG/KG BW 1/WK FOR 8 WK) was 30%, 0%, 100%, p<0.05, the “tumour outcome (control, treated, inhibition, significance)” value (Carcinogen: DIETHYLNITROSAMINE, 55-18-5, Dose [Inhibitor]: 0, 5 MG/L IN DRINKING WATER FOR DURATION OF STUDY BEGINNING 7 D PRIOR TO CARCINOGEN TREATMENT (STUDY DURATION: 6 MO), Species: RAT, Strain/Sex: BD6/FEMALE, Target Tissue: Type of Lesion: ESOPHAGUS: TUMOR, Dose [Carcinogen]: 80 MG/KG BW 1/WK FOR 9 WK) was 50%, 51%, -2%, not significant and the “tumour outcome (control, treated, inhibition, significance)” value (Carcinogen: DIETHYLNITROSAMINE, 55-18-5, Dose [Inhibitor]: 0, 5 MG/L IN DRINKING WATER FOR DURATION OF STUDY BEGINNING 7 D PRIOR TO CARCINOGEN TREATMENT (STUDY DURATION: 6 MO), Species: RAT, Strain/Sex: BD6/FEMALE, Target Tissue: Type of Lesion: LIVER: TUMOR, Dose [Carcinogen]: 80 MG/KG BW 1/WK FOR 9 WK) was 100%, 95%, 5%, not significant. For the same compound, the “tumour outcome (control, treated, inhibition, significance)” value (Carcinogen: DIETHYLNITROSAMINE, 55-18-5, Dose [Inhibitor]: 0, 5 MG/L IN DRINKING WATER FOR DURATION OF STUDY BEGINNING 7 D PRIOR TO FIRST CARCINOGEN DOSE (STUDY DURATION: 6 MO), Species: RAT, Strain/Sex: BD6/FEMALE, Target Tissue: Type of Lesion: ESOPHAGUS: TUMOR, Dose [Carcinogen]: 80 MG/KG BW 1/WK FOR 8 WK) was 31%, 50%, -61%, not significant, the “tumour outcome (control, treated, inhibition, significance)” value (Carcinogen: DIETHYLNITROSAMINE, 55-18-5, Dose [Inhibitor]: 0, 5 MG/L IN DRINKING WATER FOR DURATION OF STUDY BEGINNING 7 D PRIOR TO FIRST CARCINOGEN DOSE (STUDY DURATION: 6 MO), Species: RAT, Strain/Sex: BD6/FEMALE, Target Tissue: Type of Lesion: LIVER: TUMOR, Dose [Carcinogen]: 80 MG/KG BW 1/WK FOR 8 WK) was 94%, 94%, 0%, not significant and the “tumour outcome (control, treated, inhibition, significance)” value (Carcinogen: DIETHYLNITROSAMINE, 55-18-5, Dose [Inhibitor]: 0, 10 MG/L IN DRINKING WATER FOR DURATION OF STUDY BEGINNING 4 D POST CARCINOGEN TREATMENT (STUDY DURATION: 6 M0), Species: RAT, Strain/Sex: BD6/FEMALE, Target Tissue: Type of Lesion: LIVER: TUMOR, Dose [Carcinogen]: 80 MG/KG BW 1/WK FOR 9 WK) was 100%, 96%, 4%, not significant.
